These results are taken from ChEMBL document CHEMBL1133590, “Study on selectin blocker. 8. Lead discovery of a non-sugar antagonist using a 3D-pharmacophore model” (J Med Chem, 2000).

The assay addresses T1, E-selectin (Mus musculus, UniProt Q00690).
T1 sequence (Q00690 whole entry): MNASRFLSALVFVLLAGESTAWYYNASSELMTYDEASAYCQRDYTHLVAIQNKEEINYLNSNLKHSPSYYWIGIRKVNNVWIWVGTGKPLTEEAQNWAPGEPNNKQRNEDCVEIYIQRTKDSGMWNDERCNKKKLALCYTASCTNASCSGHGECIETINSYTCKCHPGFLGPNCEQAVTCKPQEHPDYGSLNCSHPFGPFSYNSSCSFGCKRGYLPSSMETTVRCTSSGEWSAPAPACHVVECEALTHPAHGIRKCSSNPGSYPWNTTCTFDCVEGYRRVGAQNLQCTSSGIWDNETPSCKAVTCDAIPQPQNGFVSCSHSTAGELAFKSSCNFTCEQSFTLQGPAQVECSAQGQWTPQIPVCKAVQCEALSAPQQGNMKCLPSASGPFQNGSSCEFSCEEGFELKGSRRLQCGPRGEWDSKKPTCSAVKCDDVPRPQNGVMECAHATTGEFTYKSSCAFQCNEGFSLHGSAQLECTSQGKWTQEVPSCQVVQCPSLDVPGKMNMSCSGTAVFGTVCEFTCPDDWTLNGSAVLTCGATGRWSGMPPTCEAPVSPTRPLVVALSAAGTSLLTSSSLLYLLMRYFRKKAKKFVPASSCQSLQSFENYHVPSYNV
As to the kind of experiment: Evaluated for the inhibitory activity against Selectin E.
In general, IC50 refers to the concentration that inhibits the measured activity by half. The compound `CCCCCCCCCCCCCCCCCC(=O)Nc1ccc(C(=O)CC(=O)Nc2cc(C(=O)O)ccc2Oc2cc(C(=O)O)cc(C(=O)O)c2)cc1` gave an IC50 of 1200 µM.
For the compound `CCCCCCCCCCCCCCC(CCCCCCCCCCCCCC)C(=O)N[C@@H](CO[C@@H]1OC(C)[C@@H](O)[C@H](O)C1O)C(=O)N[C@H](CCC(=O)O)C(=O)NC` (stereo not given in full), inhibition was half-maximal at 13 µM (IC50).
Next, `CCCCCCCCCCCCCCCCCC(=O)Nc1ccc(C(=O)Nc2cc(C(=O)O)ccc2Oc2cc(C(=O)O)cc(C(=O)O)c2)cc1`: > 500 µM; `CC(=O)N[C@H]1[C@H]([C@H](O)[C@H](O)CO)O[C@@](O[C@H]2[C@@H](O)[C@@H](CO)O[C@@H](O[C@@H]([C@H](O[C@@H]3O[C@@H](C)[C@@H](O)[C@@H](O)[C@@H]3O)[C@H](C=O)NC(C)=O)[C@H](O)CO)[C@@H]2O)(C(=O)O)C[C@@H]1O` [SIALYL LEWIS X]: 580 µM.
With `CCCCCCCCCCCCCCCCCC(=O)Nc1ccc(C(=O)Nc2cc(C(=O)O)ccc2Oc2cccc(C(=O)O)c2)cc1`, the IC50 is 86 µM.
